According to patent US4018778A, “Derivatives of 1-phenoxy-3-amino-propane-2-ol and process for their production” (Cassella Farbwerke Mainkur Aktiengesellschaft, priority 1972, dated 1977):

Key:
[1] = test system: dp/dt (left ventricular blood pressure); assay: Intrinsic (inotropic) action on the dp/dt; assay type: in vivo, dogs; conditions: number of - and + signs indicates strength of the effect
[2] = test system: changes of the dp/dt max. after isoproterenol (left ventricular blood pressure); assay: Antagonism of isoproterenol-induced change of left ventricular dp/dt max. in narcotised dogs (catheter tip manometer); assay type: in vivo; conditions: Canis lupus familiaris, iv, isoproterenol 0.5·10^-6 gram/kg i.v., cumulative doses of test substance
Method: Isoproterenol (0.5 ^. 10^-^6 gram/kg i.v.) was injected at intervals of 15 minutes before and after increasing doses of the test substance. The changes of the dp/dt max. after isoproterenol were determined before and after the intravenous administration of the test substance. These values were used to calculate the ED50. The doses quoted in each case are the cumulative doses of the test substance.

[3] = test system: heart (inotropic intrinsic action); conditions: words, cited from earlier work

Compound	Intrinsic action on the dp/dt [1]	ED50 [2]	other results
CCOc1ccc(OCC(O)CNC(C)CC(O)c2cccnc2)cc1 (single isomer, unassigned; (-)) [(-)-1-(3'-β-pyridyl-3'-hydroxy-1'-methyl-propylamino)-3-(p-ethoxyphenoxy)-propan-2-ol, laevo-rotatory]	0		
CCOc1ccccc1OCC(O)CNC(C)CC(O)c1cccnc1 (single isomer, unassigned; (-)) [(-)-1-β-Pyridyl-3-[3-(o-ethoxyphenoxy)-2-hydroxy-propylamino]-butan-1-ol (laevo-rotatory)]		0.0026 mg/kg	
CCOc1ccccc1OCC(O)CNC(C)CC(O)c1cccnc1 (stereo not drawn) [1-(3'-β-Pyridyl-3'-hydroxy-1'-methyl-propylamino)-3-(o-ethoxyphenoxy)-propan-2-ol]	0	0.0151 mg/kg	
CC(CC(O)c1cccnc1)NCC(O)COc1ccccc1-c1ccccc1 (stereo not drawn) [1-(3'-β-Pyridyl-3'-hydroxy-1'-methyl-propylamino)-3-(o-phenylphenoxy)-propan-2-ol]	0		
COc1cccc(OCC(O)CNC(C)CC(O)c2cccnc2)c1 (stereo not drawn) [1-(3'-β-pyridyl-3'-hydroxy-1'-methyl-propylamino)-3-(m-methoxyphenoxy)-propan-2-ol]		0.012 mg/kg	
Cc1cccc(OCC(O)CNC(C)CC(O)c2cccnc2)c1 (stereo not drawn) [1-(3'-β-pyridyl-3'-hydroxy-1'-methyl-propylamino)-3-(m-methylphenoxy)-propan-2-ol]		0.0175 mg/kg	
C=CCOc1ccccc1OCC(O)CNC(C)CC(O)c1cccnc1 (stereo not drawn) [1-(3'-β-pyridyl-3'-hydroxy-1'-methyl-propylamino)-3-(o-allyloxyphenoxy)-propan-2-ol]		0.008 mg/kg	
C=CCc1ccccc1OCC(O)CNC(C)CC(O)c1cccnc1 (stereo not drawn) [1-(3'-β-pyridyl-3'-hydroxy-1'-methyl-propylamino)-3-(o-allylphenoxy)-propan-2-ol]		0.0178 mg/kg	
CC(CC(O)c1cccnc1)NCC(O)COc1ccccc1Cl (stereo not drawn) [1-(3'-β-pyridyl-3'-hydroxy-1'-methyl-propylamino)-3-(o-chlorophenoxy)-propan-2-ol]	0	0.0082 mg/kg	
COc1ccccc1OCC(O)CNC(C)CC(O)c1cccnc1 (stereo not drawn) [1-(3'-β-pyridyl-3'-hydroxy-1'-methyl-propylamino)-3-(o-methoxyphenoxy)-propan-2-ol]		0.006 mg/kg	
CC(=O)Nc1ccc(OCC(O)CNC(C)CC(O)c2cccnc2)cc1 (stereo not drawn) [1-(3'-β-pyridyl-3'-hydroxy-1'-methyl-propylamino)-3-(p-acetamino-phenoxy)-propan-2-ol]		0.0146 mg/kg	
CC(CC(O)c1cccnc1)NCC(O)COc1ccc(Cl)cc1 (stereo not drawn) [1-(3'-β-pyridyl-3'-hydroxy-1'-methyl-propylamino)-3-(p-chlorophenoxy)-propan-2-ol]		0.03 mg/kg	
CCOc1ccc(OCC(O)CNC(C)CC(O)c2cccnc2)cc1 (stereo not drawn) [1-(3'-β-pyridyl-3'-hydroxy-1'-methyl-propylamino)-3-(p-ethoxyphenoxy)-propan-2-ol]		0.0448 mg/kg	
CCCCCOc1ccc(OCC(O)CNC(C)CC(O)c2cccnc2)cc1 (stereo not drawn) [1-(3'-β-pyridyl-3'-hydroxy-1'-methyl-propylamino)-3-(p-pentoxyphenoxy)-propan-2-ol]	0	0.0184 mg/kg	
CCCOc1ccc(OCC(O)CNC(C)CC(O)c2cccnc2)cc1 (stereo not drawn) [1-(3'-β-pyridyl-3'-hydroxy-1'-methyl-propylamino)-3-(p-propoxyphenoxy)-propan-2-ol]		0.0167 mg/kg	
CC(C)NCC(O)COc1cccc2ccccc12 (stereo not drawn) [Propranolol]		0.0561 mg/kg	inotropic intrinsic action (clinical practice) [3]: strongly negative-inotropic intrinsic action; cardiac insufficiency risk ([3]; clinical practice): capable of causing an acute cardiac insufficiency or liable to intensify an already existing cardiac insufficiency
